Where “and” joins values, the source holds several entries; their conditions need not be identical. Identical values can stand only once.
Experiments:
PC7 = target: T1, PC7 (Homo sapiens, UniProt Q16549); assay: Enzyme inhibition assay, fluorogenic substrate, PC7; format: biochemical; conditions: 20 mM Bis-Tis pH 6.5, 1 mM CaCl2, substrate 250 μM, 37° C.
T1 sequence (Q16549 142-785): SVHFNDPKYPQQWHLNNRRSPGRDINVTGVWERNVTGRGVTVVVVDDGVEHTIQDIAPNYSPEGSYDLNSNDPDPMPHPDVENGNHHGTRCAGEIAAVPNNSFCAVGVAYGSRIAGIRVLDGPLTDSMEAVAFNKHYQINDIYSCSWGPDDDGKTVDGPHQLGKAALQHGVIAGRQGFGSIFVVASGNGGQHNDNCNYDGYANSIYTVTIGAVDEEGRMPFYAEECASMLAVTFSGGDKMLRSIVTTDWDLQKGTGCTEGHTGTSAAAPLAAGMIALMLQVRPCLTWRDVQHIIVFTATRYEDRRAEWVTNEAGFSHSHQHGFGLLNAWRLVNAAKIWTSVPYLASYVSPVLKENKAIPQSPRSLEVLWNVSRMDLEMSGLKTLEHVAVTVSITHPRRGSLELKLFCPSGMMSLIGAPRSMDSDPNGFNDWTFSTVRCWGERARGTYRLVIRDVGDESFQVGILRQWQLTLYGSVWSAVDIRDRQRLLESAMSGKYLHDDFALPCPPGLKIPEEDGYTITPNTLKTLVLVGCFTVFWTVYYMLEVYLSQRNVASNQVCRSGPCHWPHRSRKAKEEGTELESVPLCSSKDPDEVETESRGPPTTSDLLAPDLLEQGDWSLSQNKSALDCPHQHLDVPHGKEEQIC
Protocol: (§1) Enzyme inhibition assays for furin (FIG. 5D) were performed in 100 mM Hepes pH 7.5, 1 mM CaCl2, 1 mM β-mercaptoethanol, 0.5 μg/μL BSA. Assays for PC2 (FIG. 5E) were performed in 20 mM Bis-Tris pH 5,7, 1 mM CaCl2, 0.1% Brij-30. Assays for PC1/3, PC4, PACE4, PC5/6 and PC7 (FIGS. 5F, G, A, B and C respectively) were performed in 20 mM Bis-Tis pH 6.5, 1 mM CaCl2. All assays were performed with the substrate pyroGlu-Arg-[…]-Lys-Arg-methyl-coumaryl-7-amide (SEQ ID NO: 33) (PyrRTKR-MCA (SEQ ID NO: 34)) (Bachem, CA) at 100 μM for furin, PC1/3, PC4, PACE4 and PC5/6, 200 μM for PC2 and 250 μM for PC7. Assays were carried out at 37° C. for 30-60 min and real-time fluorescence was measured with an excitation wavelength of 370 nm and an emission wavelength of 460 nm using a Gemini XS™ 96-well spectrofluorometer and SoftMaxPro4™ software (Molecular Devices, CA). Inhibitory peptides were added to the enzymes at decreasing concentrations from 100 μM to 50 nM and incubated 5 minutes prior to the addition of substrate.

[1] = test system: 4-2 cells (DU145 transfected with PACE4-SOFA-δRz); assay: Annexin-V-FITC/propidium iodide apoptosis assay, 4-2 cells; format: cell-based, human; conditions: 66 μM, 48 h
Protocol: To determine if the reduced cell number observed in the 4-2 cell line, described previously in Example 3, was a consequence of the induction of the apoptosis, the translocation of phosphatidylserine from the inner to the outer leaflet of the plasma membrane was analyzed. This analysis was performed with a FITC-conjugated annexin-V, which has a strong affinity for these extracellular phosphatidylserines, and the fluorescent intercalating agent propidium iodide (PI). Cell lines were seeded in a 6-well plate at a density of 8×10^4 cells/well in complete growth medium. The next day, cells were washed twice with PBS and complete growth media with or without cisplatin (Sigma) at final concentration of 66 μM were added. After a 48 hours incubation period, growth media were collected and combined to the harvested cells obtained after trypsin treatment. The collected pellets were washed with PBS before staining. Then, cells were stained with the Annexin-V-FLUOS™ Staining Kit (Roche Applied science), which double labeled cells with annexin-V-fluorescein isothiocyanate (FITC) and propidium iodide (PI). Stained cells were then analyzed with FACScan flow cytometer (BD Biosciences).

DU145 cells = assay: Annexin-V-FITC/propidium iodide apoptosis assay, DU145; format: cell-based, human; conditions: DU145, 66 μM, 48 h
Protocol: The annexin V assay is based on the observation that soon after initiating apoptosis, cells translocate the membrane phosphatidylserine from the inner face of the plasma membrane to the cell surface. Once on the cell surface, phosphatidylserine can be easily detected by staining with a fluorescent conjugate of Annexin V, a protein that has a high affinity for phosphatidylserine. Detection is analyzed by flow cytometry. […] This analysis was performed with a FITC-conjugated annexin-V, which has a strong affinity for these extracellular phosphatidylserines, and the fluorescent intercalating agent propidium iodide (PI). Cell lines were seeded in a 6-well plate at a density of 8×10^4 cells/well in complete growth medium. The next day, cells were washed twice with PBS and complete growth media with or without cisplatin (Sigma) at final concentration of 66 μM were added. After a 48 hours incubation period, growth media were collected and combined to the harvested cells obtained after trypsin treatment. The collected pellets were washed with PBS before staining. Then, cells were stained with the Annexin-V-FLUOS™ Staining Kit (Roche Applied science), which double labeled cells with annexin-V-fluorescein isothiocyanate (FITC) and propidium iodide (PI). Stained cells were then analyzed with FACScan flow cytometer (BD Biosciences).

[2] = test system: gliobastoma cell line U251; assay: MTT cell proliferation index, U251; format: cell-based, human
Protocol: (§2) The effects of the PACE4 inhibitors on cell proliferation were evaluated. MTT assay was used to evaluate the effects of PACE4 inhibitors on cell proliferation. MTT (3-(4,5-Dimethylthiazol-2-yl)-2,5-diphenyltetrazolium bromide) assay is a standard colorimetric assay for measuring cellular proliferation. Yellow MTT is reduced to purple formazan in the mitochondria of living cells. This reduction takes place only when mitochondrial reductase enzymes are active. Conversion is directly related to the number of viable cells. The MTT assay is quantitative and more sensitive than viability using trypan blue and can also be adapted to 96 well formats, whereas trypan blue tests must be read individually. […]
(§3) The index of cellular proliferation of cells treated with the ML and acetyl-ML (CH3CO—NH-[…]-CONH2 (SEQ ID NO: 5), see Table 2) peptides were measured using the colorimetric MTT assay (thiazolyl blue tetrazolium bromide; Sigma-Aldrich). […]
(§4) 48 hours later, 20 μl of a MTT solution (5 mg/ml in PBS 1×) was added to each well for 4.5 h at 37° C./5% CO2. […] The absorbance was measured at a wavelength of 550 nm with a reference at 650 nm in microplate reader (SpectraMax190™; Molecular Devices).

[3] = test system: prostatic cell line DU145; assay: MTT cell proliferation index, DU145; format: cell-based, human; conditions: control = 100%, MTT after 48 hours
Protocol: The effects of the PACE4 inhibitors on cell proliferation were evaluated. MTT assay was used to evaluate the effects of PACE4 inhibitors on cell proliferation. MTT (3-(4,5-Dimethylthiazol-2-yl)-2,5-diphenyltetrazolium bromide) assay is a standard colorimetric assay for measuring cellular proliferation. Yellow MTT is reduced to purple formazan in the mitochondria of living cells. This reduction takes place only when mitochondrial reductase enzymes are active. Conversion is directly related to the number of viable cells. The MTT assay is quantitative and more sensitive than viability using trypan blue and can also be adapted to 96 well formats, whereas trypan blue tests must be read individually. Because the MTT assay requires less cell manipulation than [^3H]thymidine incorporation assays (no cell harvesting or medium changes are necessary), the possibility of error is reduced and the standard deviation values are lower. […] Other assays also known can be used to determine the effects of an inhibitor on the proliferation of a cell.
The index of cellular proliferation of cells treated with the ML and acetyl-ML (CH3CO—NH-[…]-CONH2 (SEQ ID NO: 5), see Table 2) peptides were measured using the colorimetric MTT assay (thiazolyl blue tetrazolium bromide; Sigma-Aldrich). Briefly, cells were seeded in 96-well plate (BD Biosciences) in triplicate with 100 μl of a 3.5×10^4 cells/ml cell suspension in complete growth medium. The following day, cells were carefully washed twice with PBS and media were replaced with 100 μl of either RPMI or conditioned growth media. Conditioned growth medium preparation consists in 1.2×10^5 cells seeded in 6-well plates with complete growth media. The next day, cells are washed twice with PBS and the media are replaced with 1 ml RPMI growth medium. 48 hours later, the conditioned media are collected, filtered through […] syringe filter units and incubated on different cell lines.
48 hours later, 20 μl of a MTT solution (5 mg/ml in PBS 1×) was added to each well for 4.5 h at 37° C./5% CO2. The media was then discarded and the cells were solubilized with 100 μl isopropanol/0.04 N HCl solution. The absorbance was measured at a wavelength of 550 nm with a reference at 650 nm in microplate reader (SpectraMax190™; Molecular Devices).

[4] = test system: sarcofibroma cell line HT1080; assay: MTT cell proliferation index, HT1080; format: cell-based, human
Protocol: as §2, §3, §4

PACE4 = target: T2, PACE4 (Homo sapiens, UniProt P29122); assay: Enzyme inhibition assay, fluorogenic substrate, PACE4; format: biochemical
T2 sequence (P29122 150-969): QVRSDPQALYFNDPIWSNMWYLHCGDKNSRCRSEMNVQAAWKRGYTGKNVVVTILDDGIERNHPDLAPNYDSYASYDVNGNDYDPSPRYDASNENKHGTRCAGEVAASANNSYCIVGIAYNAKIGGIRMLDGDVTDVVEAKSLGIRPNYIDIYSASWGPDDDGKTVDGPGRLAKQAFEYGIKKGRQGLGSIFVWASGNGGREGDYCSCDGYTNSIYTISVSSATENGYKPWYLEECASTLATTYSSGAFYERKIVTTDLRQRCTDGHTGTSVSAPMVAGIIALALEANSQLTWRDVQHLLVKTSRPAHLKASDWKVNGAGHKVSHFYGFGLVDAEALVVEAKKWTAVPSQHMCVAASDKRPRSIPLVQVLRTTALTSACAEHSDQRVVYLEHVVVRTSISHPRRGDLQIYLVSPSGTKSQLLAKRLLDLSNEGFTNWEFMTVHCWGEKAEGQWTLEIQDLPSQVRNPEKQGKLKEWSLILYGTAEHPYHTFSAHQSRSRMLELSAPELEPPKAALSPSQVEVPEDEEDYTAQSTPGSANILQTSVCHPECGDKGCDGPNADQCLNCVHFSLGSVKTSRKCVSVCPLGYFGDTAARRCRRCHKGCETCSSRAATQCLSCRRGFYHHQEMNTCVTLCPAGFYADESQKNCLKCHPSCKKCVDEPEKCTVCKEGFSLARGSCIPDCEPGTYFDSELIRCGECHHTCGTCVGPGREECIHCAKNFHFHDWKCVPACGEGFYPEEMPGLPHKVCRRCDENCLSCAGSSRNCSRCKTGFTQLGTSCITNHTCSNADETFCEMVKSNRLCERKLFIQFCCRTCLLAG
Source text: Those skilled in the art can easily determine PACE4 activity using routine experimentation. For example, the activity assay of PACE4 can be carried out in 96 well plates, and includes the use of a fluorogenic substrate, namely PyrRTKR-AMC (SEQ ID NO: 30) (AMC is amino-methyl-coumarin). The substrate and the purified enzyme are placed in the wells, and depending on the units of enzyme present, the AMC moiety will be cleaved at a certain rate, such a pmoles/sec. The resultant free AMC is now fluorescent and can be detected with a spectrofluorometer. The addition of inhibitors to the assay will yield progress curves that have lesser slopes. Based on these changes the inhibitory constants (Ki) is calculated (Fugere et al., 2002, J. Biol. Chem., 277:7648-56).
as §1

furin = furin (Homo sapiens, UniProt P09958); assay: Enzyme inhibition assay, fluorogenic substrate, furin; format: biochemical
furin, sequence (P09958 108-794, species assumed): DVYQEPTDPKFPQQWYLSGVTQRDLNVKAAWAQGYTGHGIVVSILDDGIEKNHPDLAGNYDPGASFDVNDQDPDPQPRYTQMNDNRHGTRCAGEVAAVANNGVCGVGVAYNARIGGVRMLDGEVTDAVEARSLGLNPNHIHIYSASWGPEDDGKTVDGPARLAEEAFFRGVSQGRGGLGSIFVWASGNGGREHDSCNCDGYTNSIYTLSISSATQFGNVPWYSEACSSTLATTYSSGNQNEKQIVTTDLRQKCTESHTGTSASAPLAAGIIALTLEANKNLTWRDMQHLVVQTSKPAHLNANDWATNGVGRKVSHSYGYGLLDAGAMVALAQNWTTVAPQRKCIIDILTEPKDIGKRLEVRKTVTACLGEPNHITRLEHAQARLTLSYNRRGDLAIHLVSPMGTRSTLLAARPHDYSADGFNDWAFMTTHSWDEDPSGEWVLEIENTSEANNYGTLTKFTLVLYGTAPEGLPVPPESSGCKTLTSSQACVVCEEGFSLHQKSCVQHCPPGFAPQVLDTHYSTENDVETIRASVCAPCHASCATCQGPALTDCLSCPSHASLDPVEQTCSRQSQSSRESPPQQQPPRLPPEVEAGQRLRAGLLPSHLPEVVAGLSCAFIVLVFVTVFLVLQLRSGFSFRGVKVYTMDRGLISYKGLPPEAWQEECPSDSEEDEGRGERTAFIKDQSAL
Protocol: as §1

PC5/6 = PC5/6 (Homo sapiens, UniProt Q92824); assay: Enzyme inhibition assay, fluorogenic substrate, PC5/6; format: biochemical
PC5/6, sequence (Q92824 115-1860): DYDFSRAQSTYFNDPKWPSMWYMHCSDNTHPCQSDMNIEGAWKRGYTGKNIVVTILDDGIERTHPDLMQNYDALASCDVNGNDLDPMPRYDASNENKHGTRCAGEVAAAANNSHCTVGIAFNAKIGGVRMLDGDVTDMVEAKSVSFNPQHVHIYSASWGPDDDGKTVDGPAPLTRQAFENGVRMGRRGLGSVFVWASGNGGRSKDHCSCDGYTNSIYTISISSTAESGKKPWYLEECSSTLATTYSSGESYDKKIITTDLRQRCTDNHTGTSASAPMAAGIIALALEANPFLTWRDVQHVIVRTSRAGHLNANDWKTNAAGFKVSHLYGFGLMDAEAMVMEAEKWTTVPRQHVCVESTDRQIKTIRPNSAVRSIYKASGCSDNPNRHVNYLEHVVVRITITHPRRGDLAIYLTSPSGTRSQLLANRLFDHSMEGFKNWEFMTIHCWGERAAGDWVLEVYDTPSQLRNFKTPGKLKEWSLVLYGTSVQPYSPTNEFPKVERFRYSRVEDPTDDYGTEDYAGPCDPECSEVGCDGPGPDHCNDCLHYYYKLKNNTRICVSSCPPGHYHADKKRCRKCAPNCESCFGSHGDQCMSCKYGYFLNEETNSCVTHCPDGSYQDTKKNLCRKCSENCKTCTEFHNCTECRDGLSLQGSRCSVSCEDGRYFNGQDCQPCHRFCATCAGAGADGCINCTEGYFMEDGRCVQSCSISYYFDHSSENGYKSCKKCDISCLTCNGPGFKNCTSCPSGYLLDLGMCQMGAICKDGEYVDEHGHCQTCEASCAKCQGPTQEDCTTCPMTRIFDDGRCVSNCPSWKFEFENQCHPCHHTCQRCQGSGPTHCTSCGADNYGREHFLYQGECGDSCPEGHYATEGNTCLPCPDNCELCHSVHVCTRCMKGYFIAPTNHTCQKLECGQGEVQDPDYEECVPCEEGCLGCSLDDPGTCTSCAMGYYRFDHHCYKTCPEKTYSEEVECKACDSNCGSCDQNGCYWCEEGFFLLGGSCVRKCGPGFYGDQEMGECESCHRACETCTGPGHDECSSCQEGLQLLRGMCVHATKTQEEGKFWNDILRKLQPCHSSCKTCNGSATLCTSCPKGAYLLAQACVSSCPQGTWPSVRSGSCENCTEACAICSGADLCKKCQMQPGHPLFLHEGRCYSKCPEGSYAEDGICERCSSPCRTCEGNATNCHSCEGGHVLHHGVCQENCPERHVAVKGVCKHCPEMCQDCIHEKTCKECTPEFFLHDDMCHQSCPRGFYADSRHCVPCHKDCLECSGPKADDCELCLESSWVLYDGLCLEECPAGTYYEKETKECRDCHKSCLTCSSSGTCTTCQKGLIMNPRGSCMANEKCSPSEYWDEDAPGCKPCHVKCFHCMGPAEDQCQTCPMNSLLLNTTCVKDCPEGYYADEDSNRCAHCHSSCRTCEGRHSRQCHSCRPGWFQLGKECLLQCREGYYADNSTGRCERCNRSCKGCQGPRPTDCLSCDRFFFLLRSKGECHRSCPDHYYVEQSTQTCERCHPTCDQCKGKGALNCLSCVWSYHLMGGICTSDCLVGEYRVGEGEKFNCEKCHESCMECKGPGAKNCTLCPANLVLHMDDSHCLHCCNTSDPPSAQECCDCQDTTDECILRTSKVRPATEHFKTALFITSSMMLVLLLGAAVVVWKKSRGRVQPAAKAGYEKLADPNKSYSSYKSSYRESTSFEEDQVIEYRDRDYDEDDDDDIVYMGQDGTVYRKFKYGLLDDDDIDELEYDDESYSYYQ
Protocol: as §1

PC1/3 = target: T3, PC1/3 (Homo sapiens, UniProt P29120); assay: Enzyme inhibition assay, fluorogenic substrate, PC1/3; format: biochemical
T3 sequence (P29120 111-753): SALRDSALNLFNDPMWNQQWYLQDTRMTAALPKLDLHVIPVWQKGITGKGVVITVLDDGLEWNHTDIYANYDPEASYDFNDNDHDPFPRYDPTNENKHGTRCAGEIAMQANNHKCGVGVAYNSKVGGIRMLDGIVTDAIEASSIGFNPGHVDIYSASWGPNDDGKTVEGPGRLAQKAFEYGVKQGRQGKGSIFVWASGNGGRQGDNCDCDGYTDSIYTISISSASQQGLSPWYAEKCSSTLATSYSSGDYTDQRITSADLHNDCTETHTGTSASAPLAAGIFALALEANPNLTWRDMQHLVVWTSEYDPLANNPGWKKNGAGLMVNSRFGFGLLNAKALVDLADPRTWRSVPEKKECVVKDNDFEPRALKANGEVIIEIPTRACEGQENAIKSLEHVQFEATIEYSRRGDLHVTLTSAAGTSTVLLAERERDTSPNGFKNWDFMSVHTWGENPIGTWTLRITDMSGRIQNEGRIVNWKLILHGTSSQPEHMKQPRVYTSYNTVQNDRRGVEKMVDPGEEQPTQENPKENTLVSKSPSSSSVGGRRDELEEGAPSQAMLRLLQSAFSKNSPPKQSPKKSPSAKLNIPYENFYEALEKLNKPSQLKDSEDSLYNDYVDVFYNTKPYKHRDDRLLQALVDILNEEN
Protocol: as §1

Row | Compound | Ki (PC7) | inhibition potency on furin, in words (furin) | effect on cell proliferation index, in words [2] | Cell proliferation index ([3]; DU145, 1 μM peptide) | Cell proliferation index ([3]; DU145, 10 μM peptide) | Cell proliferation index ([3]; DU145, 50 μM peptide) | Cell proliferation index ([3]; DU145, 100 μM peptide) | effect on cell proliferation index, in words [4] | further results
1 | N.N.[Cl][Pt][Cl] [cisplatin] |  |  |  |  |  |  |  |  | annexin-V positivity ([1]; untreated 3%): 17%; PI staining (dead cells) ([1]; untreated 7%): 16%; annexin-V positivity (DU145 cells; untreated 2%): 30%; PI staining (dead cells) (DU145 cells; untreated 6%): 12%
2 | CH3CO—NH-LLLLRVKR-NH2 (Ac-LLLLRVKR-NH2) [acetyl ML] |  |  | significant effects | 63.84% | 41.91% | 25.79% | 24.05% | significant effects | 
3 | LRVKR [LRVKR—NH2, LRVKR-NH2] |  | mid-nanomolar inhibitors |  |  |  |  |  |  | 

Further lines, with some results ahead:

Row | Ki (PC7) | inhibition potency on furin, in words (furin) | Compound | effect on cell proliferation index, in words [2] | Cell proliferation index ([3]; DU145, 1 μM peptide) | Cell proliferation index ([3]; DU145, 10 μM peptide) | Cell proliferation index ([3]; DU145, 50 μM peptide) | Cell proliferation index ([3]; DU145, 100 μM peptide) | effect on cell proliferation index, in words [4] | further results
4 | 35 to 50 nM |  | CC(C)C[C@H](NC(=O)[C@H](CC(C)C)NC(=O)[C@H](CC(C)C)NC(=O)[C@@H](N)CC(C)C)C(=O)N[C@@H](CC(C)C)C(=O)N[C@@H](CCCNC(=N)N)C(=O)N[C@H](C(=O)N[C@@H](CCCCN)C(=O)N[C@@H](CCCNC(=N)N)C(N)=O)C(C)C [5 Leu] |  |  |  |  |  |  | 
5 | 35 to 50 nM and 50 nM |  | H-LLLLRVKR-NH2 [ML] | significant effects | 97.73% | 92.03% | 72.57% | 54.70% | significant effects | inhibition potency on PACE4, in words (PACE4): nanomolar range; Ki (PACE4; 20 mM Bis-Tis pH 6.5, 1 mM CaCl2, substrate 100 μM, 37° C.): 6 nM; more effective on PACE4 than the other PCs (PACE4; ratio of Ki values, other PCs vs PACE4): ≥ 9 folds
6 |  | mid-nanomolar inhibitors | LLRVKR [LLRVKR—NH2, LLRVKR-NH2] |  |  |  |  |  |  | inhibition potency on PC5/6, in words (PC5/6): mid-low nanomolar range; inhibition potency on PC1/3, in words (PC1/3): best inhibited

Reference: patent publication US8658591B2, “Multi-LEU peptides and analogues thereof as selective PACE4 inhibitors and effective antiproliferative agents” (priority 2008, dated 2014)
